Laboratory results as given in PubChem BioAssay (NCI).
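Interpolation was linear, between the two tested concentrations surrounding the appropriate level; five concentrations were tested over 48 hours in 96-well plates. The concentration for 50% growth inhibition is given as GI50. TGI: concentration producing complete growth inhibition.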

Columns and labels:
Assay in all cases: NCI anticancer screen, dose series, 48 h
COLO 205 colon = test system: COLO 205 colon
NCI/ADR-RES ovarian = test system: NCI/ADR-RES ovarian
HT29 colon = test system: HT29 colon
SF-539 CNS = test system: SF-539 CNS
NCI-H226 lung = test system: NCI-H226 lung
HCC-2998 colon = test system: HCC-2998 colon
K-562 leukemia = test system: K-562 leukemia
SK-MEL-28 melanoma = test system: SK-MEL-28 melanoma
HL-60(TB) leukemia = test system: HL-60(TB) leukemia
SW-620 colon = test system: SW-620 colon

SMILES	GI50 (COLO 205 colon) [µM]	TGI (COLO 205 colon) [µM]	GI50 (NCI/ADR-RES ovarian) [µM]	TGI (NCI/ADR-RES ovarian) [µM]	GI50 (HT29 colon) [µM]	TGI (HT29 colon) [µM]	GI50 (SF-539 CNS) [µM]	TGI (SF-539 CNS) [µM]	GI50 (NCI-H226 lung) [µM]	TGI (NCI-H226 lung) [µM]	GI50 (HCC-2998 colon) [µM]	TGI (HCC-2998 colon) [µM]	GI50 (K-562 leukemia) [µM]	TGI (K-562 leukemia) [µM]	GI50 (SK-MEL-28 melanoma) [µM]	TGI (SK-MEL-28 melanoma) [µM]	GI50 (HL-60(TB) leukemia) [µM]	TGI (HL-60(TB) leukemia) [µM]	GI50 (SW-620 colon) [µM]	TGI (SW-620 colon) [µM]
O=C1OC(=O)C(c2c[nH]c3ccccc23)=C1c1c[nH]c2ccccc12	> 25	> 25	> 25	> 25	> 25	> 25	> 25	> 25	> 25	> 25	> 25	> 25	> 25	> 25	> 25	> 25	> 25	> 25	> 25	> 25
COC(=O)/C=C/C=C(c1ccccc1)c1ccccc1	3.57	13.9	3.12	17	3.85	> 100	5.17	43.3	14.3	> 100	28.8	> 100	4	> 100	7.84	> 100	3.26	26.1	3.03	> 100
CNC(=O)OCc1nc(SC2CCCCO2)n(C)c1COC(=O)NC (configuration not stated)	–	> 100	–	> 100	–	> 100	–	> 100	–	> 100	–	> 100	–	> 100	–	> 100	–	> 100	–	> 100
O=C(c1ccccc1)C1N=NCC1c1ccc([N+](=O)[O-])cc1 (configuration not stated)	–	> 100	–	> 100	–	> 100	–	> 100	–	> 100	–	> 100	–	> 100	–	> 100	–	67.3	–	> 100
CCCN=Cc1cc(Cc2ccc(O)c(C=NCCC)c2)ccc1O	–	34.2	–	59.6	–	27.6	–	9	–	51.2	–	27.8	–	4.71	–	–	–	5	–	15.9
CNC(=O)n1ccc2cc(Oc3ccnc(NC(=O)c4ccc(C5CCN(CCO)CC5)cc4)c3)c(OCCOC)cc21	2.83	8.6	12.9	42.4	0.801	11.1	1.12	2.56	12.1	31.3	8.57	21.3	0.529	10.6	6.33	19.2	2.13	4.58	6.3	18.9
Cc1[c-]onc1C.Cc1[c-]onc1C.[Ag].[Ag].[NH-]S(=O)(=O)c1ccc(N=Nc2cc(N=Nc3ccc(S([NH-])(=O)=O)cc3)c3c(NC(=O)C(Cl)Cl)cccc3c2OC(=O)C(Cl)Cl)cc1	5.15	30.4	21	> 50	9.29	21.7	14.2	> 50	12.6	> 50	10.9	26	3.99	32.2	8.18	17	11	26.7	3.54	12.8
CCN(CC)c1ccc(C(=C2C=CC(=[N+](CC)Cc3cccc(S(=O)(=O)O)c3)C=C2)c2ccc(N(CC)Cc3cccc(S(=O)(=O)O)c3)cc2)cc1	1.87	3.83	> 100	> 100	3.4	> 88.9	3.57	23.3	9.07	> 90.2	5.78	> 100	3.85	97.5	15.6	> 100	4.38	17.4	4.45	> 100
CC/C=C\C=C/C(=O)N/C=C/CC1Cc2cccc(O)c2C(=O)O1 (configuration not stated)	20.3	41.2	35.5	> 100	23.5	53.7	13.9	37.1	39.6	> 100	19.2	43.5	11.5	> 100	17.4	58.7	23.8	> 100	13.8	28.2
CCCC[C@H](NC(=O)[C@H]1CCCN1C)C(=O)N(C)[C@H](C[C@@H](OC(C)=O)c1nc(C(=O)N[C@@H](Cc2ccccc2)C[C@H](C)C(=O)OCC)cs1)C(C)C	0.0132	0.0961	0.542	> 33.3	0.00974	0.0414	0.022	0.241	0.531	16.4	0.0113	10.9	0.00726	> 33.3	0.029	17.4	0.0058	0.0253	0.0106	> 33.3
CN(C)S(=O)(=O)c1ccc(NC(=O)COC(=O)c2ccc(S(=O)(=O)N3CCCCC3)cc2)cc1	> 100	> 100	> 100	> 100	> 100	> 100	> 100	> 100	> 100	> 100	> 100	> 100	> 100	> 100	> 100	> 100	> 100	> 100	> 100	> 100
C[C@H](Nc1ncnc2nc[nH]c12)c1cc2cccc(Cl)c2c(=O)n1-c1ccccc1	19.7	> 100	> 100	> 100	5.92	> 100	12.5	> 96	> 77.4	> 100	28.4	> 100	46.9	> 100	11.8	> 100	3.37	99.5	36.5	> 100
COC(=O)[C@@H](C)C[C@H](Cc1ccccc1)NC(=O)c1nc([C@@H](C[C@H](C(C)C)N(C)C(=O)[C@@H](NC(=O)[C@H]2CCCCN2C)C(C)C)OC(C)=O)sc1C	< 0.00167	0.00926	0.0521	> 16.7	< 0.00167	0.088	0.00239	0.00822	0.0275	> 16.7	< 0.00167	> 16.7	< 0.00167	> 16.7	–	–	< 0.00167	< 0.00167	< 0.00167	> 16.7
